Test results published in PMC10570016, “Domain collapse and active site ablation generate a widespread animal mitochondrial seryl-tRNA synthetase” (Nucleic Acids Research, 2023).

Biological target: T1, DmSLIMP/DmSerRS2α (Drosophila melanogaster, UniProt Q9VF85)
T1 construct: gene SerRS-m; co-expressed in E. coli BL21(DE3) from bicistronic pOPINFS; C-terminal 6His on DmSerRS2α, C-terminal Strep II on DmSLIMP; heterodimer; HisTrap; with Seryl-tRNA synthetase-like insect mitochondrial protein
T1 sequence (Q9VF85 22-417): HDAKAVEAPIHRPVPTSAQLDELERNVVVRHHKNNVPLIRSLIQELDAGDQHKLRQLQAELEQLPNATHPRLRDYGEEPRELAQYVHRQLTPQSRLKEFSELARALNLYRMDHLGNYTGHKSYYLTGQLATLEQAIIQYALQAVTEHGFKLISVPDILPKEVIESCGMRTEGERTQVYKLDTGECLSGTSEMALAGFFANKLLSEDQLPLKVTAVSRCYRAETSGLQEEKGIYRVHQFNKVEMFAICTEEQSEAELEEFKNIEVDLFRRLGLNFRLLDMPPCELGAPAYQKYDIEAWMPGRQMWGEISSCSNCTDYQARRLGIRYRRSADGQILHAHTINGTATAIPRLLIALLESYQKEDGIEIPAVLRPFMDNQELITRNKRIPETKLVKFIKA
T1 sequence (Q95T19 1-464 partner): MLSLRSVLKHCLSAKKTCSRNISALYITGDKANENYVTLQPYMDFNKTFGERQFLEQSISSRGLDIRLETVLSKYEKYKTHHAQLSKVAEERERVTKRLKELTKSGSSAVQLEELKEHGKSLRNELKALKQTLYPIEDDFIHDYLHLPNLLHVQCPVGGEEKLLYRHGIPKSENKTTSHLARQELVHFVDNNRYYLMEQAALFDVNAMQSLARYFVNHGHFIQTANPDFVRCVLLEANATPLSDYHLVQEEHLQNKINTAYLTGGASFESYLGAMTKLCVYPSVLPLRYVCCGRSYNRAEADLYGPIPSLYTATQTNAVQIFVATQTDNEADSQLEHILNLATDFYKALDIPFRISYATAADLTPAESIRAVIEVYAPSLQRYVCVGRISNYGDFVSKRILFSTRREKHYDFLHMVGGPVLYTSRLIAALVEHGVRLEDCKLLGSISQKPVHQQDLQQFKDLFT
Test: radiometric tRNA aminoacylation, scintillation counting
Type: biochemical
Conditions: co-substrates ATP and in vitro transcribed Drosophila mt-tRNA-Ser(GCU); Mg2+; labelled compound; pH 7.2, 25 °C (mutant SerRS and tRNA assays pH 7.5)

N[C@@H](CO)C(=O)O [serine]
radiometric tRNA aminoacylation, scintillation counting: In all cases the aminoacylation activity of DmSLIMP/DmSerRS2α was not affected by the presence of the LON domain
